{"source": "patent US7741327B2", "about": "(Hoffmann-La Roche Inc., priority 2008, dated 2010)", "key": {"C57B6 mice": {"test_system": "C57B6 mice", "test": "Glucokinase activator in vivo screen: blood glucose lowering in mice after oral dosing", "settings": "Mus musculus, vs control, read-out: % gluc lowering @ 4 H; for change in vivo at 30 mg/kg: 4 h post 30 mg/kg oral dose; for change in vivo at 25 mg/kg: 4 h post 25 mg/kg oral dose", "procedure": "Glucokinase Activator in vivo Screen Protocol in Lean and Diet Induced Obese Mice: Lean or Diet-Induced Obese (DIO) C57BL/6J mice were orally dosed via gavage with Glucokinase (GK) activator following a two hour fasting period. Blood glucose determinations were made at various (e.g. 0, 1, 2, 4 and 8 h post-oral gavage) times during the study.\nC57Bl/6J mice were obtained from Jackson Laboratory (Bar Harbor, Me.) and were maintained in a light-dark cycle with lights on from 0600-1800 hr. For studies in lean mice, the mice were received at age ten weeks and given ad libitum access to control diet (LabDiet 5001 chow, PMI Nutrition, Brentwood, Mo.), and were at least age 11 weeks at the time of study. For studies in the DIO model, the mice were received at age five weeks and given ad libitum access to Bio-Serv F3282 High Fat Diet (Frenchtown, N.J.), and were at least age 16 weeks at the time of study. The experiments were conducted during the light phase of the light-dark cycle. Mice (n=6) are weighed and fasted for a two hour period prior to oral treatment. GK activators are formulated in Gelucire vehicle (Ethanol:Gelucire44/14:PEG400q.s. 4:66:30 v/w/v. For studies in lean mice, the mice were dosed orally with 5.0 μL per gram of body weight (i.e. 5 ml/kg×10.0 mg/ml formulation to equal a 50 mg/kg dose). For studies in DIO mice, the mice were dosed orally with 5.0 μL per gram of body weight (i.e. 5.0 ml/kg×5 mg/ml formulation to equal a 25 mg/kg dose). Immediately prior to dosing, a pre-dose (time zero) blood glucose reading was acquired by snipping off a small portion of the animal's tail and collecting 15 μL blood into a heparinized capillary tube for analysis. Following GK activator administration, additional blood glucose readings were taken at various time points post dose from the same tail wound. Results were interpreted by comparing the mean blood glucose values of vehicle treated mice with GK activator treated mice over the study period.\nThe Table below provides data for % glucose lowering of a representative number of compounds of the present invention vs control at 4 h post 25 or 30 mg/kg dose in C57B6 mice: […]"}, "[1]": {"target": "T1, Recombinant human liver GK1 (GST-GK) (Homo sapiens, UniProt P35557)", "T1 construct": "made in house; host or cells: E. coli", "T1 sequence (P35557 1-466 isoform P35557-2)": "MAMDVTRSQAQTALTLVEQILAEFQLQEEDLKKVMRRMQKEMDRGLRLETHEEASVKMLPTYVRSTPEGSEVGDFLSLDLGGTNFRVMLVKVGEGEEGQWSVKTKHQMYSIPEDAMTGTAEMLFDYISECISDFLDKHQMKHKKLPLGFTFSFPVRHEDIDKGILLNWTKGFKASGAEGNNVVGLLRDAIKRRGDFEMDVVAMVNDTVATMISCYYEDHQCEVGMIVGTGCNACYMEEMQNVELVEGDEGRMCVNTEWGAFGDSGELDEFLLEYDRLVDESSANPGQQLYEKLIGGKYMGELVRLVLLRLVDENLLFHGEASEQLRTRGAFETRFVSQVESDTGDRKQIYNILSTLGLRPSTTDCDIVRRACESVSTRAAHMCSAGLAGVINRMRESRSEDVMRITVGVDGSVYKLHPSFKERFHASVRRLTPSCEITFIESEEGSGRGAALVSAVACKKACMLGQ", "test": "In vitro glucokinase activity (G6PDH-coupled NADH assay)", "format": "biochemical", "settings": "30° C., 5 mM D-glucose, 10% DMSO", "in_short": "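Activation measured as the rate of OD340 rise from G6PDH-coupled NADH production, relative to 10% DMSO control, reported as SC1.5 (concentration for 50% activity increase). Conditions: 30° C, pH 7.1 Hepes, 5 mM glucose, 1 mM ATP, purified recombinant GST-human GK1, compound preincubated 10 min before enzyme addition.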"}}, "data": [{"smiles": "CC(C)(O)Cn1ccc(NC(=O)[C@H](CC2CCCC2)N2CC(Oc3c(F)cccc3F)=CC2=O)n1", "note": "[Example 86, (S)-3-Cyclopentyl-2-[4-(2,6-difluoro-phenoxy)-2-oxo-2,5-dihydro-pyrrol-1-yl]-N-[1-(2-hydroxy-2-methyl-propyl)-1H-pyrazol-3-yl]-propionamide]", "values": [{"measurement": "change in vivo at 30 mg/kg", "setting": "C57B6 mice", "value": -57.4, "unit": "%"}, {"measurement": "SC1.5 (concentration of activator that produced a 50% increase in the activity of GK)", "setting": "[1]", "value": 0.021, "unit": "µM"}]}, {"smiles": "COc1ccccc1OC1=CC(=O)N([C@@H](CC2CCCC2)C(=O)Nc2nccs2)C1", "note": "[Example 26, (S)-3-Cyclopentyl-2-[4-(2-methoxy-phenoxy)-2-oxo-2,5-dihydro-pyrrol-1-yl]-N-thiazol-2-yl-propionamide]", "values": [{"measurement": "change in vivo at 25 mg/kg", "setting": "C57B6 mice", "value": -36.9, "unit": "%"}, {"measurement": "SC1.5 (concentration of activator that produced a 50% increase in the activity of GK)", "setting": "[1]", "value": 0.031, "unit": "µM"}]}, {"smiles": "COc1ccccc1OC1=CC(=O)N([C@@H](CC2CCCCC2)C(=O)Nc2ccn(CC(C)(C)O)n2)C1", "note": "[Example 28, (S)-3-Cyclohexyl-N-[1-(2-hydroxy-2-methyl-propyl)-1H-pyrazol-3-yl]-2-[4-(2-methoxy-phenoxy)-2-oxo-2,5-dihydro-pyrrol-1-yl]-propionamide]", "values": [{"measurement": "change in vivo at 25 mg/kg", "setting": "C57B6 mice", "value": -45.4, "unit": "%"}, {"measurement": "SC1.5 (concentration of activator that produced a 50% increase in the activity of GK)", "setting": "[1]", "value": 0.013, "unit": "µM"}]}, {"smiles": "CC(C)C[C@@H](C(=O)Nc1ccn(CC(C)(C)O)n1)N1CC(Oc2cccc(Cl)c2Cl)=CC1=O.Cl", "note": "[Example 77, (S)-2-[4-(2,3-Dichloro-phenoxy)-2-oxo-2,5-dihydro-pyrrol-1-yl]-4-methyl-pentanoic acid [1-(2-hydroxy-2-methyl-propyl)-1H-pyrazol-3-yl]-amide Hydrochloride]", "values": [{"measurement": "change in vivo at 30 mg/kg", "setting": "C57B6 mice", "value": -39.2, "unit": "%"}, {"measurement": "SC1.5 (concentration of activator that produced a 50% increase in the activity of GK)", "setting": "[1]", "value": 0.162, "unit": "µM"}]}, {"smiles": "CC(C)C[C@@H](C(=O)Nc1ccn(C[C@@H](O)CO)n1)N1CC(Oc2ccccc2Cl)=CC1=O", "note": "[Example 66, (S)-2-[4-(2-Chloro-phenoxy)-2-oxo-2,5-dihydro-pyrrol-1-yl]-4-methyl-pentanoic acid [1-((R)-2,3-dihydroxy-propyl)-1H-pyrazol-3-yl]-amide]", "values": [{"measurement": "change in vivo at 30 mg/kg", "setting": "C57B6 mice", "value": -55.4, "unit": "%"}, {"measurement": "SC1.5 (concentration of activator that produced a 50% increase in the activity of GK)", "setting": "[1]", "value": 0.118, "unit": "µM"}]}, {"smiles": "COc1ccccc1OC1=CC(=O)N([C@@H](CC2CCCO2)C(=O)Nc2ccn(CC(C)(C)O)n2)C1", "note": "(stereo partly drawn) [Example 31, (S)-N-[1-(2-hydroxy-2-methyl-propyl)-1H-pyrazol-3-yl]-2-[4-(2-methoxy-phenoxy)-2-oxo-2,5-dihydro-pyrrol-1-yl]-3-(tetrahydro-furan-2-yl)-propionamide]", "values": [{"measurement": "change in vivo at 25 mg/kg", "setting": "C57B6 mice", "value": -31.6, "unit": "%"}, {"measurement": "SC1.5 (concentration of activator that produced a 50% increase in the activity of GK)", "setting": "[1]", "value": 0.348, "unit": "µM"}]}, {"smiles": "CC(C)C[C@@H](C(=O)Nc1ccn(CC(C)(C)O)n1)N1CC(Oc2ccccc2Cl)=CC1=O", "note": "[Example 64, (S)-2-[4-(2-Chloro-phenoxy)-2-oxo-2,5-dihydro-pyrrol-1-yl]-4-methyl-pentanoic acid [1-(2-hydroxy-2-methyl-propyl)-1H-pyrazol-3-yl]-amide]", "values": [{"measurement": "change in vivo at 30 mg/kg", "setting": "C57B6 mice", "value": -58, "unit": "%"}, {"measurement": "SC1.5 (concentration of activator that produced a 50% increase in the activity of GK)", "setting": "[1]", "value": 0.125, "unit": "µM"}]}, {"smiles": "CC(C)(O)Cn1ccc(NC(=O)[C@H](CC2CCCCC2)N2CC(Oc3ccccc3C(F)(F)F)=CC2=O)n1", "note": "[Example 32, (S)-3-Cyclohexyl-N-[1-(2-hydroxy-2-methyl-propyl)-1H-pyrazol-3-yl]-2-[2-oxo-4-(2-trifluoromethyl-phenoxy)-2,5-dihydro-pyrrol-1-yl]-propionamide]", "values": [{"measurement": "change in vivo at 25 mg/kg", "setting": "C57B6 mice", "value": -37.5, "unit": "%"}, {"measurement": "SC1.5 (concentration of activator that produced a 50% increase in the activity of GK)", "setting": "[1]", "value": 0.025, "unit": "µM"}]}, {"smiles": "CC(C)(O)Cn1ccc(NC(=O)[C@H](CC2CCCC2)N2CC(OC3CCC3)=CC2=O)n1", "note": "[Example 19, (S)-3-Cyclopentyl-N-[1-(2-hydroxy-2-methyl-propyl)-1H-pyrazol-3-yl]-2-(4-cyclobutoxy-2-oxo-2,5-dihydro-pyrrol-1-yl)-propionamide]", "values": [{"measurement": "change in vivo at 25 mg/kg", "setting": "C57B6 mice", "value": -29.5, "unit": "%"}, {"measurement": "SC1.5 (concentration of activator that produced a 50% increase in the activity of GK)", "setting": "[1]", "value": 1.991, "unit": "µM"}]}, {"smiles": "COC(C)(C)Cn1ccc(NC(=O)[C@H](CC2CCCC2)N2CC(OC3CCCC3)=CC2=O)n1", "note": "[Example 21, (S)-3-Cyclopentyl-N-[1-(2-methoxy-2-methyl-propyl)-1H-pyrazol-3-yl]-2-(4-cyclopentyloxy-2-oxo-2,5-dihydro-pyrrol-1-yl)-propionamide]", "values": [{"measurement": "change in vivo at 25 mg/kg", "setting": "C57B6 mice", "value": -26.5, "unit": "%"}, {"measurement": "SC1.5 (concentration of activator that produced a 50% increase in the activity of GK)", "setting": "[1]", "value": 0.545, "unit": "µM"}]}, {"smiles": "CC(C)(O)Cn1ccc(NC(=O)[C@H](CC2CCOCC2)N2CC(Oc3c(F)cccc3F)=CC2=O)n1", "note": "[Example 43, (S)-2-[4-(2,6-Difluoro-phenoxy)-2-oxo-2,5-dihydro-pyrrol-1-yl]-N-[1-(2-hydroxy-2-methylpropyl)-1H-pyrazol-3-yl]-3-(tetrahydro-pyran-4-yl)-propionamide]", "values": [{"measurement": "change in vivo at 30 mg/kg", "setting": "C57B6 mice", "value": -38.1, "unit": "%"}, {"measurement": "SC1.5 (concentration of activator that produced a 50% increase in the activity of GK)", "setting": "[1]", "value": 0.058, "unit": "µM"}]}, {"smiles": "CC(C)(O)Cn1ccc(NC(=O)[C@H](CC2CCCC2)N2CC(OC3CCOCC3)=CC2=O)n1", "note": "[Example 18, (S)-3-Cyclopentyl-N-[1-(2-hydroxy-2-methyl-propyl)-1H-pyrazol-3-yl]-2-[2-oxo-4-(tetrahydro-pyran-4-yloxy)-2,5-dihydro-pyrrol-1-yl]-propionamide]", "values": [{"measurement": "change in vivo at 25 mg/kg", "setting": "C57B6 mice", "value": -10, "unit": "%"}, {"measurement": "SC1.5 (concentration of activator that produced a 50% increase in the activity of GK)", "setting": "[1]", "value": 3.982, "unit": "µM"}]}, {"smiles": "CC(C)(O)Cn1ccc(NC(=O)[C@H](CC2CCCC2)N2CC(OC3CCCCC3)=CC2=O)n1", "note": "[Example 17, (S)-3-Cyclopentyl-N-[1-(2-hydroxy-2-methyl-propyl)-1H-pyrazol-3-yl]-2-(4-cyclohexyloxy-2-oxo-2,5-dihydro-pyrrol-1-yl)-propionamide]", "values": [{"measurement": "change in vivo at 25 mg/kg", "setting": "C57B6 mice", "value": -35.8, "unit": "%"}, {"measurement": "SC1.5 (concentration of activator that produced a 50% increase in the activity of GK)", "setting": "[1]", "value": 0.366, "unit": "µM"}]}, {"smiles": "COC(=O)c1ccc(NC(=O)[C@H](CC2CCCCC2)N2CC(Oc3c(F)ccc(Cl)c3F)=CC2=O)nc1", "note": "[Example 73, 6-{(S)-2-[4-(3-Chloro-2,6-difluoro-phenoxy)-2-oxo-2,5-dihydro-pyrrol-1-yl]-3-cyclohexyl-propionylamino}-nicotinic acid methyl ester]", "values": [{"measurement": "SC1.5 (concentration of activator that produced a 50% increase in the activity of GK)", "setting": "[1]", "value": 0.036, "unit": "µM"}]}, {"smiles": "CCc1nsc(NC(=O)[C@H](CC(C)C)N2CC(Oc3ccccc3Cl)=CC2=O)n1", "note": "[Example 110, (S)-2-[4-(2-Chloro-phenoxy)-2-oxo-2,5-dihydro-pyrrol-1-yl]-4-methyl-pentanoic acid (3-ethyl-[1,2,4]thiadiazol-5-yl)-amide]", "values": [{"measurement": "SC1.5 (concentration of activator that produced a 50% increase in the activity of GK)", "setting": "[1]", "value": 3.478, "unit": "µM"}]}, {"smiles": "CC1(C)OC[C@@H](Cn2ccc(NC(=O)[C@H](Cc3ccccc3F)N3CC(Oc4ccccc4Cl)=CC3=O)n2)O1", "note": "[Example 182, (S)-2-[4-(2-chloro-phenoxy)-2-oxo-2,5-dihydro-pyrrol-1-yl]-N-[1-((R)-2,2-dimethyl-[1,3]dioxolan-4-yl-methyl)-1H-pyrazol-3-yl]-3-(2-fluoro-phenyl)-propionamide]", "values": [{"measurement": "SC1.5 (concentration of activator that produced a 50% increase in the activity of GK)", "setting": "[1]", "value": 0.496, "unit": "µM"}]}, {"smiles": "CC(C)C[C@@H](C(=O)Nc1ccn(CC(C)(C)O)n1)N1CC(Oc2cccc3ocnc23)=CC1=O", "note": "[Example 242, (S)-2-[4-(Benzooxazol-4-yloxy)-2-oxo-2,5-dihydro-pyrrol-1-yl]-4-methyl-pentanoic acid [1-(2-hydroxy-2-methyl-propyl)-1H-pyrazol-3-yl]-amide]", "values": [{"measurement": "SC1.5 (concentration of activator that produced a 50% increase in the activity of GK)", "setting": "[1]", "value": 3.036, "unit": "µM"}]}, {"smiles": "CC[C@H](C)C[C@H](C(=O)Nc1ccn(C[C@@H](O)CO)n1)N1CC(Oc2ccccc2Cl)=CC1=O", "note": "(single isomer, unassigned) [Example 250]", "values": [{"measurement": "SC1.5 (concentration of activator that produced a 50% increase in the activity of GK)", "setting": "[1]", "value": 6.017, "unit": "µM"}]}]}
